# Patent US12522583B2, “Benzimidazole derivatives and aza-benzimidazole derivatives as Janus kinase 2 inhibitors and uses thereof” (Dana-Farber Cancer Institute, Inc., priority 2018, dated 2026)
# Tests used:
# Assay in all cases: KINOMEscan
# Type in all cases: binding
# Conditions in all cases: read-out: percent control
# [1] = target: ABL1(H396P)-nonphosphorylated (Homo sapiens (Human), UniProt P00519, H396P)
# Text: (§1) Example 2. In Vitro Kinase Selectivity Profiling of the Compounds of the Present Disclosure
# [2] = target: ACVR1 (Homo sapiens (Human), UniProt Q04771)
# Text: as §1
# [3] = target: AKT1 (Homo sapiens (Human), UniProt P31749)
# Text: as §1
# [4] = target: ALK(C1156Y) (Homo sapiens (Human), UniProt Q9UM73, C1156Y)
# Text: as §1
# [5] = target: BMPR1A (Homo sapiens (Human), UniProt P36894)
# Text: as §1
# [6] = target: BMX (Homo sapiens (Human), UniProt P51813)
# Text: as §1
# [7] = target: CLK4 (Homo sapiens (Human), UniProt Q9HAZ1)
# Text: as §1
# [8] = target: CSNK1D (Homo sapiens (Human), UniProt P48730)
# Text: as §1
# [9] = target: CSNK2A2 (Homo sapiens (Human), UniProt P19784)
# Text: as §1
# [10] = target: DDR1 (Homo sapiens (Human), UniProt Q08345)
# Text: as §1
# [11] = target: DMPK2 (Homo sapiens (Human), UniProt Q6DT37)
# Text: as §1
# [12] = target: DRAK2 (Homo sapiens (Human), UniProt O94768)
# Text: as §1
# [13] = target: EPHB1 (Homo sapiens (Human), UniProt P54762)
# Text: as §1
# [14] = target: EPHB3 (Homo sapiens (Human), UniProt P54753)
# EPHB3, sequence (P54753 34-998): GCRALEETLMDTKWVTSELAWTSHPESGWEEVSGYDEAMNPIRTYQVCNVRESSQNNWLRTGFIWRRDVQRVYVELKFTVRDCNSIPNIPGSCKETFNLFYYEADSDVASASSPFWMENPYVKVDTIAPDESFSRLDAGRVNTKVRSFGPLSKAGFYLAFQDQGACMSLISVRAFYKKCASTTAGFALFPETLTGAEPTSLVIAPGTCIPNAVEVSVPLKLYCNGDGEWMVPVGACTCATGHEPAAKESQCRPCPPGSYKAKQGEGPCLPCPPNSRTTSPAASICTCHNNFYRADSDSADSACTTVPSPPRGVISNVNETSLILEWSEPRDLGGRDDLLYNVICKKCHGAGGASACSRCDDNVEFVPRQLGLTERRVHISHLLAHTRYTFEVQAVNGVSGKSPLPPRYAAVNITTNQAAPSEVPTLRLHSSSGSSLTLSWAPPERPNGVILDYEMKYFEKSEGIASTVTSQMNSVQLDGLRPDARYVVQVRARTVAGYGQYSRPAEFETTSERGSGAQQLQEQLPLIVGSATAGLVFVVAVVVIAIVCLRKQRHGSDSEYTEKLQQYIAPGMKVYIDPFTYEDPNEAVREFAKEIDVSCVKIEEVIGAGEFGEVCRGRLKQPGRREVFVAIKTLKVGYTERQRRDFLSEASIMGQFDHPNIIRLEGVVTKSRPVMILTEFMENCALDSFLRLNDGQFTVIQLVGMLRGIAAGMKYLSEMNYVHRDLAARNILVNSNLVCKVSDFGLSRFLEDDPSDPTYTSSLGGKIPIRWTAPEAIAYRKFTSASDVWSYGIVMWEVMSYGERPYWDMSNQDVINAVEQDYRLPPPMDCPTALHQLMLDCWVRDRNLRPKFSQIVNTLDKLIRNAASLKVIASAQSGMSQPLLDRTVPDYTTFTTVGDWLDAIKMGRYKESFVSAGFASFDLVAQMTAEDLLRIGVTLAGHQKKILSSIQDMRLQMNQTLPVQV
# Text: as §1
# [15] = target: ERBB2 (Homo sapiens (Human), UniProt P04626)
# Text: as §1
# [16] = target: ERBB4 (Homo sapiens (Human), UniProt Q15303)
# ERBB4, sequence (Q15303 26-1308): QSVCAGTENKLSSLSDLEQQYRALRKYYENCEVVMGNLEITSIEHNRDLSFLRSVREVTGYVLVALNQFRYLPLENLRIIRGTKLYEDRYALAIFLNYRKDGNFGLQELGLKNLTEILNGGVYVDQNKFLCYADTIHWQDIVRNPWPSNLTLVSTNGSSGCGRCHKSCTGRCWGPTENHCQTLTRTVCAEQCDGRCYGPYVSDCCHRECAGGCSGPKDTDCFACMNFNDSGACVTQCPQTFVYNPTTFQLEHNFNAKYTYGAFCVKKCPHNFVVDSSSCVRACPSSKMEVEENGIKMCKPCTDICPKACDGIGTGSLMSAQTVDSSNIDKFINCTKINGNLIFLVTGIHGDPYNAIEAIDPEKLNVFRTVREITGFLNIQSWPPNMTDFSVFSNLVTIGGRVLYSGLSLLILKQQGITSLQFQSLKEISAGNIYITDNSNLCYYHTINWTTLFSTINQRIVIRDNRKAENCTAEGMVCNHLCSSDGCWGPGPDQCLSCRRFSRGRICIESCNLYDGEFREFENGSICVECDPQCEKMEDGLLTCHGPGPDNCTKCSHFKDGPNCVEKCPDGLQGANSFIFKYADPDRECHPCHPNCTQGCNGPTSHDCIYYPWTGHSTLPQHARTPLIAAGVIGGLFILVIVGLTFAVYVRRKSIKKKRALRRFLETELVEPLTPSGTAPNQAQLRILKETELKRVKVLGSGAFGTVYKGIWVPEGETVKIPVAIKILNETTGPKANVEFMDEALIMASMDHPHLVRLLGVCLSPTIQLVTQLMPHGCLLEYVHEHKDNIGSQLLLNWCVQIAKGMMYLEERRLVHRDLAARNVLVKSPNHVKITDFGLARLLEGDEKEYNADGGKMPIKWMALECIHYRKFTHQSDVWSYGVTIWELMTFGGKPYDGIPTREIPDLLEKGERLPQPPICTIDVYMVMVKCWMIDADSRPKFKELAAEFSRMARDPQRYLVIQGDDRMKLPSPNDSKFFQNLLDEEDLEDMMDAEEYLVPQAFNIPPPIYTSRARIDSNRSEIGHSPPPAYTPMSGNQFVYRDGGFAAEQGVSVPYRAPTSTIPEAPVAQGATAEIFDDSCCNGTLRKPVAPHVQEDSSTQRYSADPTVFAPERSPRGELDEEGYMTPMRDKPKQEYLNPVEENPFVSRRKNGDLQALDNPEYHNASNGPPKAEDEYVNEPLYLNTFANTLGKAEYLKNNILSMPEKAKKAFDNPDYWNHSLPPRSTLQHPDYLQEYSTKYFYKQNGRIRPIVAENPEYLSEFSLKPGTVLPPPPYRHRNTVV
# Text: as §1
# [17] = target: ERK4 (Homo sapiens (Human), UniProt P31152)
# Text: as §1
# [18] = target: FGFR3 (Homo sapiens (Human), UniProt P22607)
# Text: as §1
# [19] = target: FYN (Homo sapiens (Human), UniProt P06241)
# Text: as §1
# [20] = target: MAP3K4 (Homo sapiens (Human), UniProt Q9Y6R4)
# Text: as §1
# [21] = target: MAPKAPK2 (Homo sapiens (Human), UniProt P49137)
# Text: as §1
# [22] = target: MARK2 (Homo sapiens (Human), UniProt Q7KZI7)
# MARK2, sequence (Q7KZI7 whole entry): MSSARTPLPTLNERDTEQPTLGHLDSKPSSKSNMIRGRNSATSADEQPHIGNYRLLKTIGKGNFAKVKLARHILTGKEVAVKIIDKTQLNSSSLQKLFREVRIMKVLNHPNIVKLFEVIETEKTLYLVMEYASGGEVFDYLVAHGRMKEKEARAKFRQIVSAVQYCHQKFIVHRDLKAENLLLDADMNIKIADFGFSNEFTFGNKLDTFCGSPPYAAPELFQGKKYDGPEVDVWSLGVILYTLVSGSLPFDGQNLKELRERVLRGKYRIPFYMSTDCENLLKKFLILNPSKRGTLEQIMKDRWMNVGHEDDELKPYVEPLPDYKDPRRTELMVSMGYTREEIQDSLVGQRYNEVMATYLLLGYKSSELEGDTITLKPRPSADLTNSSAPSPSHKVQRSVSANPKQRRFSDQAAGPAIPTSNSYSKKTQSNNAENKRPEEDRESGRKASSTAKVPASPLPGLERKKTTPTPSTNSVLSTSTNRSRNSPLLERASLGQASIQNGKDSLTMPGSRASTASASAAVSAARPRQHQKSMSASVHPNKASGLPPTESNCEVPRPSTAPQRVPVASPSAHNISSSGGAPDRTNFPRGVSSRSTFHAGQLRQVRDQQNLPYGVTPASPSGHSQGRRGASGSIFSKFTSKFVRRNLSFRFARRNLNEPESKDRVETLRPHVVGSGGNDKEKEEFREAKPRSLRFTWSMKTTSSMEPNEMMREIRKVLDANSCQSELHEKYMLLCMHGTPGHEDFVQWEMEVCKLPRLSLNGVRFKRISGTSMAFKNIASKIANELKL
# Text: as §1
# [23] = target: MEK4 (Homo sapiens (Human), UniProt P45985)
# MEK4, sequence (P45985 whole entry): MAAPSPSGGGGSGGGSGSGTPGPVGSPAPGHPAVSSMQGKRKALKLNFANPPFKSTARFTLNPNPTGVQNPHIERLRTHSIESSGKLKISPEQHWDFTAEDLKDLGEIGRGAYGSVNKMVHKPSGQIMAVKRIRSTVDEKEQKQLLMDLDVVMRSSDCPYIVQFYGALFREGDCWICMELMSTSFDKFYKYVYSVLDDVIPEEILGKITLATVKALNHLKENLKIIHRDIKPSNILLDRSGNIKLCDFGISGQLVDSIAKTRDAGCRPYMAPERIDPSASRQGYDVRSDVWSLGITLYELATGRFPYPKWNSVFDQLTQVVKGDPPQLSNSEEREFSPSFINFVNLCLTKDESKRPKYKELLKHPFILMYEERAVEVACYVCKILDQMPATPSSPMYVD
# Text: as §1
# [24] = target: MELK (Homo sapiens (Human), UniProt Q14680)
# Text: as §1
# [25] = target: MLK2 (Homo sapiens (Human), UniProt Q02779)
# Text: as §1
# [26] = target: PIK3CA(Q546K) (Homo sapiens (Human), UniProt P42336, Q546K)
# Text: as §1
# [27] = target: PIK3CG (Homo sapiens (Human), UniProt P48736)
# Text: as §1
# [28] = target: PKN2 (Homo sapiens (Human), UniProt Q16513)
# Text: as §1
# [29] = target: PRKD3 (Homo sapiens (Human), UniProt O94806)
# Text: as §1
# [30] = target: PRKG1 (Homo sapiens (Human), UniProt Q13976)
# Text: as §1
# [31] = target: RET (Homo sapiens (Human), UniProt P07949)
# Text: as §1
# [32] = target: RSK4(Kin.Dom.2-C-terminal) (Homo sapiens (Human), UniProt Q9UK32)
# Text: as §1
# [33] = target: SIK2 (Homo sapiens (Human), UniProt Q9H0K1)
# Text: as §1
# [34] = target: STK16 (Homo sapiens (Human), UniProt O75716)
# Text: as §1
# [35] = target: TAOK3 (Homo sapiens (Human), UniProt Q9H2K8)
# TAOK3, sequence (Q9H2K8 whole entry): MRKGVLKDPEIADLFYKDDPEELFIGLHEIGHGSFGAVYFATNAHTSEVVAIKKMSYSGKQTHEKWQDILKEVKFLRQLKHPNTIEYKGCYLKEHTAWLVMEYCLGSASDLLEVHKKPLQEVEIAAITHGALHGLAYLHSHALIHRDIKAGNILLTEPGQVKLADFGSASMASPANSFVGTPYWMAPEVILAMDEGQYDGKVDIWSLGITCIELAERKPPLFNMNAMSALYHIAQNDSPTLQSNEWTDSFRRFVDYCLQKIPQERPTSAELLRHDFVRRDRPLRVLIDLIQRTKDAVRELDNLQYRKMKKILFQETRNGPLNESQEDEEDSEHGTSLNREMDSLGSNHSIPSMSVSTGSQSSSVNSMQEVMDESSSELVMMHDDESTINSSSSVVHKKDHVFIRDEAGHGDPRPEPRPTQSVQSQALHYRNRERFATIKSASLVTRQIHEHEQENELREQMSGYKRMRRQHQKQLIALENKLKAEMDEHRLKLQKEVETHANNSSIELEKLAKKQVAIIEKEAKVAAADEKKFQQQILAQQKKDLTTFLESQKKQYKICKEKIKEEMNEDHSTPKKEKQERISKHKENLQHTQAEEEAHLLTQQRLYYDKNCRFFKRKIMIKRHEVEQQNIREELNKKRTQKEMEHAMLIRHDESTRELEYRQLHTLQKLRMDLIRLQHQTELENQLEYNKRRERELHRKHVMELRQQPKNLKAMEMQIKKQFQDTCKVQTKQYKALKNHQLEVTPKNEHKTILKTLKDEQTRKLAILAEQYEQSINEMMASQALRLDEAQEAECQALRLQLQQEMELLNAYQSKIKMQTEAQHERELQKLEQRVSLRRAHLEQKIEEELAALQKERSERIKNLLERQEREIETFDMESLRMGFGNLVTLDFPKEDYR
# Text: as §1
# [36] = target: TIE1 (Homo sapiens (Human), UniProt P35590)
# Text: as §1
# [37] = target: TXK (Homo sapiens (Human), UniProt P42681)
# TXK, sequence (P42681 whole entry): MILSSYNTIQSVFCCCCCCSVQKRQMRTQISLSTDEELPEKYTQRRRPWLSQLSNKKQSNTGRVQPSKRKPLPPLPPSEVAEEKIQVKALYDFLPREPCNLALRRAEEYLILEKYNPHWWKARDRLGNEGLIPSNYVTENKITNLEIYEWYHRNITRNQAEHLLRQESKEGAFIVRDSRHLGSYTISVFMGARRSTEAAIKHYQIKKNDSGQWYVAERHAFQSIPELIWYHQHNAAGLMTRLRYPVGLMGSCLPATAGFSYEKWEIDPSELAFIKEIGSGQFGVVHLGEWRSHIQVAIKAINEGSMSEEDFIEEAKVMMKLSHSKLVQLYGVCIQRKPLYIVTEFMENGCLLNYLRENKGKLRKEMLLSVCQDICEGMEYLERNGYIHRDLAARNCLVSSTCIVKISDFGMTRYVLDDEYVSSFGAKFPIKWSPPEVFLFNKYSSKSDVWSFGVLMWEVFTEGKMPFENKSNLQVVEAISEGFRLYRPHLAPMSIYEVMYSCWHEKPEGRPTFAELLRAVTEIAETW
# Text: as §1
# [38] = target: ULK2 (Homo sapiens (Human), UniProt Q8IYT8)
# Text: as §1
# [39] = target: VEGFR2 (Homo sapiens (Human), UniProt P35968)
# Text: as §1
# [40] = target: WNK1 (Homo sapiens (Human), UniProt Q9H4A3)
# Text: as §1
# [41] = target: WNK3 (Homo sapiens (Human), UniProt Q9BYP7)
# Text: as §1
compound,measurement,setting,value
CCN1CCN(Cc2ccc(Nc3nc4ccc(Oc5ccnc(NC(C)=O)c5)cc4n3C)cc2C(F)(F)F)CC1 [Compound I-2],remaining binding at 1 µM,[1],0.05%
same,remaining binding at 1 µM,[2],99%
same,remaining binding at 1 µM,[3],94%
same,remaining binding at 1 µM,[4],96%
same,remaining binding at 1 µM,[5],100%
same,remaining binding at 1 µM,[6],100%
same,remaining binding at 1 µM,[7],100%
same,remaining binding at 1 µM,[8],100%
same,remaining binding at 1 µM,[9],82%
same,remaining binding at 1 µM,[10],0.05%
same,remaining binding at 1 µM,[11],89%
same,remaining binding at 1 µM,[12],100%
same,remaining binding at 1 µM,[13],94%
same,remaining binding at 1 µM,[14],96%
same,remaining binding at 1 µM,[15],95%
same,remaining binding at 1 µM,[16],84%
same,remaining binding at 1 µM,[17],100%
same,remaining binding at 1 µM,[18],97%
same,remaining binding at 1 µM,[19],80%
same,remaining binding at 1 µM,[20],100%
same,remaining binding at 1 µM,[21],78%
same,remaining binding at 1 µM,[22],100%
same,remaining binding at 1 µM,[23],97%
same,remaining binding at 1 µM,[24],83%
same,remaining binding at 1 µM,[25],100%
same,remaining binding at 1 µM,[26],100%
same,remaining binding at 1 µM,[27],100%
same,remaining binding at 1 µM,[28],100%
same,remaining binding at 1 µM,[29],84%
same,remaining binding at 1 µM,[30],100%
same,remaining binding at 1 µM,[31],0%
same,remaining binding at 1 µM,[32],86%
same,remaining binding at 1 µM,[33],100%
same,remaining binding at 1 µM,[34],59%
same,remaining binding at 1 µM,[35],41%
same,remaining binding at 1 µM,[36],11%
same,remaining binding at 1 µM,[37],100%
same,remaining binding at 1 µM,[38],91%
same,remaining binding at 1 µM,[39],0.85%
same,remaining binding at 1 µM,[40],100%
same,remaining binding at 1 µM,[41],100%
"CCN1CCN(Cc2ccc(Nc3nc4ccc(Oc5ccnc(NC(C)=O)c5)c(C)c4n3C)cc2C(F)(F)F)CC1 [Compound I-6, N-(4-(2-(4-((4-ethylpiperazin-1-yl)methyl)-3-(trifluoromethyl)phenylamino)-1,7-dimethyl-1H-benzo[d]imidazol-6-yloxy)pyridin-2-yl)acetamide]",remaining binding at 1 µM,[1],1.1%
same,remaining binding at 1 µM,[2],100%
same,remaining binding at 1 µM,[3],89%
same,remaining binding at 1 µM,[4],92%
same,remaining binding at 1 µM,[5],98%
same,remaining binding at 1 µM,[6],91%
same,remaining binding at 1 µM,[7],81%
same,remaining binding at 1 µM,[8],100%
same,remaining binding at 1 µM,[9],100%
same,remaining binding at 1 µM,[10],0%
same,remaining binding at 1 µM,[11],83%
same,remaining binding at 1 µM,[12],85%
same,remaining binding at 1 µM,[13],95%
same,remaining binding at 1 µM,[14],100%
same,remaining binding at 1 µM,[15],100%
same,remaining binding at 1 µM,[16],94%
same,remaining binding at 1 µM,[17],90%
same,remaining binding at 1 µM,[18],97%
same,remaining binding at 1 µM,[19],49%
same,remaining binding at 1 µM,[20],60%
same,remaining binding at 1 µM,[21],100%
same,remaining binding at 1 µM,[22],100%
same,remaining binding at 1 µM,[23],91%
same,remaining binding at 1 µM,[24],93%
same,remaining binding at 1 µM,[25],95%
same,remaining binding at 1 µM,[26],75%
same,remaining binding at 1 µM,[27],95%
same,remaining binding at 1 µM,[28],93%
same,remaining binding at 1 µM,[29],92%
same,remaining binding at 1 µM,[30],98%
same,remaining binding at 1 µM,[31],0.1%
same,remaining binding at 1 µM,[32],97%
same,remaining binding at 1 µM,[33],97%
same,remaining binding at 1 µM,[34],82%
same,remaining binding at 1 µM,[35],13%
same,remaining binding at 1 µM,[36],4%
same,remaining binding at 1 µM,[37],84%
same,remaining binding at 1 µM,[38],100%
same,remaining binding at 1 µM,[39],1.7%
same,remaining binding at 1 µM,[40],100%
same,remaining binding at 1 µM,[41],100%
